The values below come from patent US7902227B2, “C-7 isoxazolinyl quinolone / naphthyridine derivatives useful as antibacterial agents” (Janssen Pharmaceutica NV., priority 2008, dated 2011).

SMILES strings stand for the structures. Values after ≈ are worked out from the molar mass of the structure shown.

What all share (format): cell-based
Experiment [1] relates to Streptococcus pneumoniae ATCC 49619. Put plainly: In vitro antibacterial activity (MIC), microdilution broth method (NCCLS), strain E. The conditions noted are these: ATCC49619, 35° C., 16-20 hours. The protocol:
(§1) Minimal inhibitory concentration (MIC) has been an indicator of in vitro antibacterial activity widely used in the art. The in vitro antimicrobial activity of representative compounds of the present invention was determined by the microdilution broth method following the test method from the National Committee for Clinical Laboratory Standards (NCCLS). This method is described in the NCCLS Document M7-A4, Vol. 17, No. 2, “Methods for Dilution Antimicrobial Susceptibility Test for Bacteria that Grow Aerobically—Fourth Edition”, which is incorporated herein by reference.
(§2) In this method two-fold serial dilutions of drug in cation adjusted Mueller-Hinton broth are added to wells in microdilution trays. The test organisms are prepared by adjusting the turbidity of actively growing broth cultures so that the final concentration of test organism after it is added to the wells is approximately 5×10^4 CFU/well.
(§3) Following inoculation of the microdilution trays, the trays are incubated at 35° C. for 16-20 hours and then read. […] The amount of growth in the wells containing the test compound is compared with the amount of growth in the growth-control wells (no test compound) used in each tray. As set forth in Table 4, representative compounds of the present invention were tested against a variety of pathogenic bacteria resulting in a range of activities depending on the organism tested.

The subject of experiment [2] is strain C, fluoroquinolone-resistant clinical isolate of Streptococcus pneumoniae. The experiment can be described thus: In vitro antibacterial activity (MIC), microdilution broth method (NCCLS), strain C. As to conditions: read-out: In vitro Antibacterial Activity MIC, C. The procedure: as §1, §2, §3
Experiment [3] relates to strain D, fluoroquinolone-resistant clinical isolate of Streptococcus pneumoniae. The experiment can be described thus: In vitro antibacterial activity (MIC), microdilution broth method (NCCLS), strain D. As to conditions: read-out: In vitro Antibacterial Activity MIC, D. The procedure:
as §1, §2, §3

Experiment [4] relates to strain B, fluoroquinolone-resistant clinical isolate of Streptococcus pneumoniae. The experiment can be described thus: In vitro antibacterial activity (MIC), microdilution broth method (NCCLS), strain B. As to conditions: read-out: In vitro Antibacterial Activity MIC, B. The protocol:
as §1, §2, §3

Experiment [5] concerns Staphylococcus aureus OC4172. Put plainly: In vitro antibacterial activity (MIC), microdilution broth method (NCCLS), strain A. As to conditions: cation adjusted Mueller-Hinton broth, 35° C., 16-20 hours. The protocol: as §1, §2, §3

`C[C@H]1COc2c(N3CC4ON=C(c5ccccn5)C4C3)c(F)cc3c(=O)c(C(=O)O)cn1c23` (stereo partly shown) [ID No. 129]: the MIC was 1 µg/mL (≈ 2.22 µM) in experiment [1]; 16 µg/mL (≈ 35.5 µM) in experiment [2]; 4 µg/mL (≈ 8.88 µM) in experiment [3]; over 16 µg/mL in experiment [4]; 0.06 µg/mL (≈ 0.133 µM) in experiment [5].

On to `O=C(O)c1cn(C2CC2)c2cc(N3CC4ON=C(c5ccccn5)C4C3)c(F)cc2c1=O` (stereo not shown) [ID No. 135, 1-Cyclopropyl-6-fluoro-7-[3-(pyridin-2-yl)-3a,4,6,6a-tetrahydro-pyrrolo[3,4-d]isoxazol-5-yl]-4-oxo-1,4-dihydro-quinoline-3-carboxylic acid], for which the MIC came to 1 µg/mL (≈ 2.3 µM) in experiment [1]; 2 µg/mL (≈ 4.6 µM) in experiment [2]; 4 µg/mL (≈ 9.21 µM) in experiment [3]; 8 µg/mL (≈ 18.4 µM) in experiment [4]; 0.03 µg/mL (≈ 0.0691 µM) in experiment [5].

On to `COc1c(N2C[C@@H]3ON=C(c4cccnc4)[C@@H]3C2)c(F)cc2c(=O)c(C(=O)O)cn(C3CC3)c12` (relative stereo) [ID No. 123, 7-[cis-3-(3-Pyridyl)-3a,4,6,6a-tetrahydropyrrolo[3,4-d]isoxazol-5-yl]-1-cyclopropyl-8-methoxy-6-fluoro-4-oxo-1,4-dihydroquinoline-3-carboxylic acid], for which the MIC in experiment [1] turned out to be 0.5 µg/mL (≈ 1.08 µM); in experiment [2], 8 µg/mL (≈ 17.2 µM); in experiment [3], 2 µg/mL (≈ 4.31 µM); in experiment [4], 8 µg/mL (≈ 17.2 µM); in experiment [5], 0.06 µg/mL (≈ 0.129 µM).

Take `O=C(O)c1cn(-c2ccc(F)cc2F)c2nc(N3CC4ON=C(c5ccc(Cl)cc5)C4C3)c(F)cc2c1=O` (stereo not shown) [ID No. 101, 7-[3-(4-Chloro-phenyl)-3a,4,6,6a-tetrahydro-pyrrolo[3,4-d]isoxazol-5-yl]-1-(2,4-difluoro-phenyl)-6-fluoro-4-oxo-1,4-dihydro-[1,8]naphthyridine-3-carboxylic acid]: the MIC in experiment [1] is 1 µg/mL (≈ 1.85 µM); in experiment [2], 2 µg/mL (≈ 3.7 µM); in experiment [3], 4 µg/mL (≈ 7.4 µM); in experiment [4], 1 µg/mL (≈ 1.85 µM); in experiment [5], 0.06 µg/mL (≈ 0.111 µM).

Consider `CCOC(=O)C1=NOC2CN(c3c(F)cc4c(=O)c(C(=O)O)cn(C5CC5)c4c3OC)CC12` (stereo not drawn) [ID No. 124, 7-[cis-3-(3-Ethoxycarbonyl)-3a,4,6,6a-tetrahydropyrrolo[3,4-d]isoxazol-5-yl]-1-cyclopropyl-8-methoxy-6-fluoro-4-oxo-1,4-dihydroquinoline-3-carboxylic acid], for which the MIC in experiment [1] is 8 µg/mL (≈ 17.4 µM); in experiment [2], over 16 µg/mL; in experiment [3] it was over 16 µg/mL; in experiment [4], over 16 µg/mL; in experiment [5] it was 0.25 µg/mL (≈ 0.544 µM).

With `COc1ccc(C2=NOC3CN(c4nc5c(cc4F)c(=O)c(C(=O)O)cn5-c4ccc(F)cc4F)CC23)cn1` (stereo not shown) [ID No. 102, 1-(2,4-Difluoro-phenyl)-6-fluoro-7-[3-(6-methoxy-pyridin-3-yl)-3a,4,6,6a-tetrahydro-pyrrolo[3,4-d]isoxazol-5-yl]-4-oxo-1,4-dihydro-[1,8]naphthyridine-3-carboxylic acid], the MIC in experiment [1] was 1 µg/mL (≈ 1.86 µM); in experiment [2] it was 16 µg/mL (≈ 29.8 µM); in experiment [3] it was 2 µg/mL (≈ 3.72 µM); in experiment [4] it was 4 µg/mL (≈ 7.44 µM); in experiment [5] it was 0.06 µg/mL (≈ 0.112 µM).

In the case of `O=C(O)c1cn(C2CC2)c2nc(N3CC4ON=C(c5ccncc5)C4C3)c(F)cc2c1=O` (stereo not shown) [ID No. 115], the MIC in experiment [1] was determined as 1 µg/mL (≈ 2.3 µM); in experiment [2] it was 8 µg/mL (≈ 18.4 µM); in experiment [3], 4 µg/mL (≈ 9.19 µM); in experiment [4], 16 µg/mL (≈ 36.7 µM); in experiment [5], 0.06 µg/mL (≈ 0.138 µM).

`O=C(O)c1cn(C2CC2)c2nc(N3CC4ON=C(c5ccc(C(F)(F)F)nc5)C4C3)c(F)cc2c1=O` (stereo not shown) [ID No. 112, 1-Cyclopropyl-6-fluoro-4-oxo-7-[3-(6-trifluoromethyl-pyridin-3-yl)-3a,4,6,6a-tetrahydro-pyrrolo[3,4-d]isoxazol-5-yl]-1,4-dihydro-[1,8]naphthyridine-3-carboxylic acid]: the MIC is 2 µg/mL (≈ 3.97 µM) in experiment [1]; over 16 µg/mL in experiment [2]; 8 µg/mL (≈ 15.9 µM) in experiment [3]; 16 µg/mL (≈ 31.8 µM) in experiment [4]; 0.25 µg/mL (≈ 0.497 µM) in experiment [5].

Regarding `O=C(O)c1cn(C2CC2)c2nc(N3CC4ON=C(c5ccccn5)C4C3)c(F)cc2c1=O` (stereo not shown) [ID No. 113, 1-Cyclopropyl-6-fluoro-4-oxo-7-(3-pyridin-2-yl-3a,4,6,6a-tetrahydro-pyrrolo[3,4-d]isoxazol-5-yl)-1,4-dihydro-[1,8]naphthyridine-3-carboxylic acid], the MIC in experiment [1] is 1 µg/mL (≈ 2.3 µM); in experiment [2] it was 2 µg/mL (≈ 4.59 µM); in experiment [3], 4 µg/mL (≈ 9.19 µM); in experiment [4], 16 µg/mL (≈ 36.7 µM); in experiment [5] it was 0.06 µg/mL (≈ 0.138 µM).

For `CCOC(=O)C1=NOC2CN(c3nc4c(cc3F)c(=O)c(C(=O)O)cn4-c3ccc(F)cc3F)CC12` (stereo not shown) [ID No. 106, 1-(2,4-Difluoro-phenyl)-7-(3-ethoxycarbonyl-3a,4,6,6a-tetrahydro-pyrrolo[3,4-d]isoxazol-5-yl)-6-fluoro-4-oxo-1,4-dihydro-[1,8]naphthyridine-3-carboxylic acid], the MIC was 8 µg/mL (≈ 15.9 µM) in experiment [1]; over 16 µg/mL in experiment [2]; over 16 µg/mL in experiment [3]; over 16 µg/mL in experiment [4]; 0.12 µg/mL (≈ 0.239 µM) in experiment [5].

As to `COc1ccc(C2=NOC3CN(c4cc5c(cc4F)c(=O)c(C(=O)O)cn5C4CC4)CC23)cn1` (stereo not shown) [ID No. 134, 1-Cyclopropyl-6-fluoro-7-[3-(6-methoxy-pyridin-3-yl)-3a,4,6,6a-tetrahydro-pyrrolo[3,4-d]isoxazol-5-yl]-4-oxo-1,4-dihydro-quinoline-3-carboxylic acid], the MIC was 2 µg/mL (≈ 4.31 µM) in experiment [1]; over 16 µg/mL in experiment [2]; 8 µg/mL (≈ 17.2 µM) in experiment [3]; 16 µg/mL (≈ 34.4 µM) in experiment [4]; 0.12 µg/mL (≈ 0.258 µM) in experiment [5].

In the case of `NCC1=NOC2CN(c3nc4c(cc3F)c(=O)c(C(=O)O)cn4C3CC3)CC12` (stereo not shown) [ID No. 201, 7-(3-Aminomethyl-3a,4,6,6a-tetrahydro-pyrrolo[3,4-d]isoxazol-5-yl)-1-cyclopropyl-6-fluoro-4-oxo-1,4-dihydro-[1,8]naphthyridine-3-carboxylic acid], the MIC is 4 µg/mL (≈ 10.3 µM) in experiment [1]; over 16 µg/mL in experiment [2]; over 16 µg/mL in experiment [3]; over 16 µg/mL in experiment [4]; 0.5 µg/mL (≈ 1.29 µM) in experiment [5].

As to `O=C(O)c1cn(C2CC2)c2cc(N3CC4ON=C(c5cccnc5)C4C3)c(F)cc2c1=O` (stereo not shown) [ID No. 136, 1-Cyclopropyl-6-fluoro-7-[3-(pyridin-3-yl)-3a,4,6,6a-tetrahydro-pyrrolo[3,4-d]isoxazol-5-yl]-4-oxo-1,4-dihydro-quinoline-3-carboxylic acid], the MIC in experiment [1] turned out to be 1 µg/mL (≈ 2.3 µM); in experiment [2], 4 µg/mL (≈ 9.21 µM); in experiment [3], 8 µg/mL (≈ 18.4 µM); in experiment [4], 8 µg/mL (≈ 18.4 µM); in experiment [5], 0.06 µg/mL (≈ 0.138 µM).

For `CCOC(=O)C1=NOC2CN(c3c(F)cc4c(=O)c(C(=O)O)cn5c4c3OC[C@@H]5C)CC12` (stereo partly drawn) [ID No. 131, 7-[cis-3-(ethoxycarbonyl)-3a,4,6,6a-tetrahydropyrrolo[3,4-d]isoxazol-5-yl]S-(−)-9,10-difluoro-2,3-dihydro-3-methyl-7-oxo-7H-pyrido-[1,2,3-de][1,4]-benzoxazine-6-carboxylic acid], the MIC was 16 µg/mL (≈ 35.9 µM) in experiment [1]; over 16 µg/mL in experiment [2]; over 16 µg/mL in experiment [3]; over 16 µg/mL in experiment [4]; 1 µg/mL (≈ 2.25 µM) in experiment [5].

As for `COc1c(N2C[C@@H]3ON=C(c4ccccn4)[C@@H]3C2)ccc2c(=O)c(C(=O)O)cn(C3CC3)c12` (relative stereo) [ID No. 150, 7-[cis-3-(2-pyridyl)-3a,4,6,6a-tetrahydropyrrolo[3,4-d]isoxazol-5-yl]-1-cyclopropyl-8-methoxy-4-oxo-1,4-dihydroquinoline-3-carboxylic acid], the MIC in experiment [1] is 1 µg/mL (≈ 2.24 µM); in experiment [2], 8 µg/mL (≈ 17.9 µM); in experiment [3], 8 µg/mL (≈ 17.9 µM); in experiment [4], over 16 µg/mL; in experiment [5] it was 0.06 µg/mL (≈ 0.134 µM).

Take `O=C(O)c1cn(-c2ccc(F)cc2F)c2nc(N3CC4ON=C(c5ccc(C(F)(F)F)nc5)C4C3)c(F)cc2c1=O` (stereo not shown) [ID No. 103, 1-(2,4-Difluoro-phenyl)-6-fluoro-4-oxo-7-[3-(6-trifluoromethyl-pyridin-3-yl)-3a,4,6,6a-tetrahydro-pyrrolo[3,4-d]isoxazol-5-yl]-1,4-dihydro-[1,8]naphthyridine-3-carboxylic acid]: the MIC in experiment [1] is 2 µg/mL (≈ 3.48 µM); in experiment [2], over 16 µg/mL; in experiment [3] it was 4 µg/mL (≈ 6.95 µM); in experiment [4] it was 8 µg/mL (≈ 13.9 µM); in experiment [5] it was 0.25 µg/mL (≈ 0.434 µM).

On to `O=C(O)c1cn(-c2ccc(F)cc2F)c2nc(N3CC4ON=C(CN5C(=O)c6ccccc6C5=O)C4C3)c(F)cc2c1=O` (stereo not shown) [ID No. 108, 1-(2,4-Difluoro-phenyl)-7-[3-(1,3-dioxo-1,3-dihydro-isoindol-2-ylmethyl)-3a,4,6,6a-tetrahydro-pyrrolo[3,4-d]isoxazol-5-yl]-6-fluoro-4-oxo-1,4-dihydro-[1,8]naphthyridine-3-carboxylic acid], for which the MIC is 8 µg/mL (≈ 13.6 µM) in experiment [1]; over 16 µg/mL in experiment [2]; over 16 µg/mL in experiment [3]; over 16 µg/mL in experiment [4]; 0.25 µg/mL (≈ 0.424 µM) in experiment [5].
